# Experimental data published in patent US20110117070A1, “COMPOSITIONS AND METHODS FOR TREATING HEADACHE” (priority 2005, published 2011).
# Values joined by “and” are separate entries in the source; they are usually repeats but may differ in a detail not shown here. Equal entries are not always repeated. Where two headings read alike, the source gives them in different places.
# Columns and labels:
# [1] = Retrospective chart review of topiramate side effect profile in 20 migraine patients; assay type: in vivo, human; parameters: key: 1: mild or none; 2: tolerable, not treatment limiting; 3: warrants trial of topiramate dose reduction; 4: considering stopping topiramate treatment strongly; settings: topiramate alone, monotherapy for at least 6 weeks; one line per patient at the indicated daily dosage
# migraine [2] = settings: cited from earlier work; for reduction of migraine incidents vs. placebo: 50 mg/day or less
# cluster headaches = settings: cited from earlier work
# migraine [3] = experiment: Retrospective chart review of migraine treatment efficacy in 20 headache clinic patients; assay type: in vivo, human; parameters: concentration or dose not given beside the values; settings: topiramate alone, monotherapy for at least 6 weeks; one line per patient at the indicated daily dosage
# Protocol: (§1) In a headache clinic, 20 patients suffering from migraine are treated with a dosage of topiramate and then an additional, secondary therapeutic component comprising one of the following therapeutic agents, or mixture of agents: 1) a commercially available combination tablet sold under the name Migrelief® dietary supplement contains puracol feverfew extract (comprising partheolide), magnesium citrate/oxide (1:1), and riboflavin; and 2) a second medicine having the trade name Migravent® natural supplement containing butterbur extract (including petasin and isopetasin), and a blend of riboflavin, magnesium and coenzyme Q10; these combined ingredients are present in a “proprietary blend” of 876 mg.
# (§2) In twenty patients suffering from migraine the effect of augmentation of topiramate treatment was formally documented. […] Patients were treated in combination therapy with topiramate and the indicated second agent for 6 weeks before side effect and efficacy data were obtained for comparison with the monotherapy data. Dosages of the second therapeutic component was as follows: Migravent: 150 mg pyrrolizidine alkaloids (PA) free) and 876 mg (Riboflavin, Magnesium, Co-enzyme Q-10 [propriety blend]); Migralief: Magnesium citrate and oxide 360 mg, riboflavin 400 mg and Puracol Feverfew (Tanacetum parthenium). […]
# migraine [4] = experiment: as above; assay type: in vivo, human; parameters: key: 1: no measurable efficacy; 2: some measurable difference in severity and or frequency of headache; 3: modest improvement in severity or frequency of headache; 4: headache frequency improvement either 50% or greater in frequency, severity or both; settings: topiramate alone, monotherapy for at least 6 weeks; one line per patient at the indicated daily dosage
# Protocol: as §1, §2
# [5] = cited from earlier work
# Leishmania amazonensis = settings: cited from earlier work
# [6] = tested on: acute myelogenous leukemia cells; settings: normal bone marrow cells relatively unscathed; cited from earlier work
Compound,Side Effects [1],reduction of migraine incidents vs. placebo (migraine [2]),reduction of migraine incidents vs. placebo (migraine [2]; listed as toprimate),Side Effects (migraine [2]; 100 mg or more per day),prophylactic effect versus placebo (migraine [2]; 100 mg per day or greater),"patients reporting an increase in migraine and other headaches (migraine [2]; human, in vivo) [%]","reduction of migraine frequency (migraine [2]; patients having an average of 5.5 migraine per month, placebo: one headache per month)","rapid relief of cluster headaches (cluster headaches; 50, 100, or 125 mg/day)",time to control the cluster headaches (cluster headaches; daily delivery in the 50-125 mg range),Efficacy (migraine [3]),Efficacy (migraine [4]),solubility in water [5],activity against Leishmania amazonensis (Leishmania amazonensis),effect on acute myelogenous leukemia cells [6]
"2,3:4,5-Di-O-isopropylidene-β-D-fructopyranose sulfamate [Topiramate]",1 (4×) and 4 (8×) and 3 (6×) and 2 (2×),no statistical significance,did not show statistically significant efficacy,significant unacceptable side effects,statistically significant prophylactic effects,> 1,about 2 headaches per month,inadequate in providing rapid relief,1-3 weeks,"4 (headache frequency improvement either 50% or greater in frequency, severity or both)",2 (9×) and 3 (8×),–,–,–
C=C1C(=O)O[C@H]2[C@H]1CC/C(C)=C/CC[C@@]1(C)O[C@@H]21 [Parthenolide],–,–,–,–,–,–,–,–,–,–,–,limited solubility in water,active against the parasite Leishmania amazonensis,destroy acute myelogenous leukemia cells by inducing apoptosis
